Reference: EP2468303A1, “Functionalized nucleic acids and particles comprising them for the treatment of HIV infections” (priority 2010, dated 2012)

System: pNL4.3 virus
Assay: Time-of-addition experiment in single-round infection assay
Format: cell-based, HIV-1
Conditions: Hela P4 cells, 100 nM, whatever the time of addition post-infection
Excerpt: Antiviral activity was quantified using the above-described CPRG assay.

## Cc1nnc(C(=O)NC(C)(C)c2nc(C(=O)NCc3ccc(F)cc3)c(O)c(=O)n2C)o1 [raltegravir]
  viral replication blocked: < 100%
